Data taken from patent publication US9051456B2, “Agent for drug clearance and accelerator for drug clearance” (SEIKAGAKU CORPORATION, priority 2005, dated 2015).

Assay: Elimination of FP from inside of the oral cavity by gargling/rinsing (Tests 1 to 6), FP in spat-out liquids measured by HPLC
Type: in vivo, human (healthy adult volunteers)
Conditions: conclusion from Tests 1 to 6
Description: Healthy 5 adult volunteers were selected. In this connection, these volunteers received sufficient explanation from a doctor based on a descriptive document, and after understanding the explanation, submitted a document on their own judgment stating that they approved the participation in the test.
In this connection, application of FP was carried out by directly applying the FP (dry powder) took out on powder papers. Also, the subjects were given attention not to inhale the FP applied into the oral cavity from the bronchus to the lungs.
Test 1: After rinsing inside of the oral cavity, inside of the oral cavity was dried by blowing air for 30 seconds with a dryer, and then FP (100 μg) was sparged to the oral cavity. Thereafter, rinsing of the mouth with looking upward (gargling) was carried out for 5 seconds and then rinsing of the mouth facing front (rinsing) was carried out for 5 seconds (these are regarded as once), respectively using 20 ml of purified water, which was repeated 5 times. […]
In each test, the liquids spat out after gargling and rinsing by each subject were recovered, and FP concentrations in said liquids were respectively measured. […]
Based on the measured FP concentrations, amounts of FP eliminated from inside of the oral cavity were calculated, and mean value and standard deviation (SD) in each test were calculated. […]

Q: Which “overall effect on elimination of drugs and acceleration of elimination” value does the source give for hyaluronic acid [HA] here?
A: Its value is “markedly effective”.
